“Also recorded” adds a separate entry of the source. Like-named read-outs stand apart in the source and are kept apart here.
Legend:
KRASG12C [1] = target: T1, KRASG12C (Homo sapiens, UniProt P01116, G12C); assay: Cellular target occupancy 6 h; type: cell-based
KRASG12C [2] = target: T1, KRASG12C; assay: cRAF recruitment 6 h cellular assay; type: cell-based
[3] = test system: MEK Q56P mutated cell lines; assay: Proliferation cellular assay; type: cell-based
[4] = test system: Ba/F3 cells expressing FLAG-KRAS G12C/H95R; assay: Ba/F3 3-day proliferation, Cell titer glo (Example 12); type: cell-based, murine; settings: Mus musculus
Description: (§1) The parental Ba/F3 cells were cultured in the presence of 5 ng/ml of recombinant murine IL-3 (Life Technologies, #PMC0035).
(§2) The mutant plasmids were transfected into the Ba/F3 WT cells by electroporation with the NEON transfection kit (Invitrogen, #MPK10025).
(§3) Ba/F3 cells are normally dependent on IL-3 to survive and proliferate, however, by expressing oncogenes they are able to switch their dependency from IL-3 to the expressed oncogene. […] Cell number and viability was measured every three days and after seven days the IL-3 withdrawal was completed.
(§4) Treatment was performed on the same day with a Tecan D300e drug dispenser. Viability was detected on the same day of treatment for the start plate (Day 0) and three days post-treatment (Day 3) using the CellTiter-Glo Luminescent Cell Viability Assay (Promega, #G7573) on a Tecan infinitiy M200 Pro reader (Intergration Time 1000 ms).
(§5) To determine the growth, the three days post-treatment (Day 3) readout was normalized to start plate (Day 0). The percentage viability was then calculated by normalizing treated wells to DMSO treated control samples. XLfit was used to make the fitted curve with a Sigmoidal Dose-Response Model (four-parameter curve) (FIG. 7).

[5] = test system: Ba/F3 cells expressing FLAG-KRAS G12C/R68S; assay: as above; type: cell-based, murine; settings: Mus musculus
Description: as §1, §2, §3, §4, §5

[6] = test system: Ba/F3 cells expressing FLAG-KRAS G12C/Y96C; assay: as above; type: cell-based, murine; settings: Mus musculus
Description: as §1, §2, §3, §4, §5

[7] = test system: Ba/F3 cells expressing FLAG-KRAS G12C/Y96D; assay: as above; type: cell-based, murine; settings: Mus musculus
Description: as §1, §2, §3, §4, §5

[8] = test system: NCI-H2122 (KRASG12C lung) xenograft; type: in vivo, mice
[9] = test system: Lu99 KRAS G12C lung carcinoma xenograft; assay: Anti-tumor efficacy in Lu99 KRAS G12C lung carcinoma xenografts; type: in vivo, mice
Description: It carries the allele NM_033360.4(KRAS):c.34G>T and consequently a heterozygous KRAS Gly12Cys mutation. Lu99 cells were grown in sterile conditions in a 37° C. incubator with 5% CO2 for two weeks. The cells were kept in RPMI media supplemented with 10% FCS, 2 mM L-Glutamin, 1 mM sodium pyruvate and 10 mM HEPES, and split 1:6 every 3 days. […] On the day of injection, cells were harvested after 8 passages in total, including passages from the vendor. Cells were resuspended in 50% HBSS and 50% Matrigel at a final concentration of 10·10^6 cells/ml.
Experiments were performed with female nude mice (Charles River Laboratories, Crl:NU(NCr)-Foxn1nu Homozygous). […] Animals were allowed to accommodate at least for 7 days.
Mice were injected subcutaneously with Lu99 human NSCLC cells to induce xenograft tumors and randomized into treatment groups when the mean tumor volume reached ˜250 mm^3.
The control group received a solution of 0.1% Tween 80 (Fisher Scientific AG #BP338-500) and 0.5% Methylcellulose in water.
The treatment period was between 9 to 28 days, depending on the groups.
Tumor growth was monitored regularly post cell inoculation and animals were randomized into treatment groups (n=6) when TV reached appropriate volume. During the treatment period, xenograft tumor sizes were measured about 2-3 times per week manually with calipers, and the TV was estimated in mm^3 using the formula: Length×Width^2/2.
Mice were injected subcutaneously with Lu99 human NSCLC cells to induce xenograft tumors and randomized into treatment groups when the mean tumor volume reached ˜200 mm^3. […] The treatment period was between 14 to 35 days, depending on the groups. Animals treated with vehicle were terminated at day 14. […] Tumor volumes were recorded and are represented as mean±SEM (standard error of the mean) for each group. Anti-tumor response of treatment groups vs. vehicle group was calculated at day 14 as % T/C or % regression.

[10] = test system: KRAS G12C-mutated colorectal cancer PDX models; assay: KRAS G12C-mutated patient-derived xenograft (PDX) models of human colorectal cancer; type: in vivo, mice; settings: oral; Compound A 100 mg/kg daily alone or with TNO155 10 mg/kg twice daily; one animal per PDX model
Description: Female nude mice were implanted subcutaneously with tumor fragments from each PDX model. Individual mice were assigned to treatment groups for dosing once their tumor volume reached 200-250 mm^3. One animal per PDX model was assigned to each treatment arm. […] The end of study per model was defined as minimum of 28 days treatment, or duration for untreated tumor to reach 1500 mm^3, or duration for two doublings of untreated tumor, whichever was slower. Tumor volumes were recorded and are represented as % tumor volume change f SEM for each group.

4-week toxicity study = type: in vivo; settings: rat
KRASG12C [11] = target: T1, KRASG12C; assay: In vivo KRASG12C target occupancy in NCI-H2122 xenografts; parameters: endogenous in cells; settings: 100 mg/kg QD oral
Description: KRASG12C inhibition can be assessed by measuring free KRASG12C levels (target occupancy) and other biomarkers in the MAPK signaling pathway, such as decreased levels of phosphorylated ERK1/2 (pERK) and downregulation of DUSP6 mRNA transcript. […] In the less sensitive NCI-H2122 xenografts, orally administered JDQ443 (100 mg/kg QD) achieved approximately 80% KRASG12C inhibition and 90% decrease in DUSP6 mRNA transcript, causing stasis which is the maximum response in this model upon MAPK pathway inhibition.

KRASG12C [12] = target: T1, KRASG12C; assay: KRASG12C target occupancy in LU99 xenografts after 5 days treatment; type: in vivo; parameters: KRASG12C target occupancy was assessed after 5 days treatment of LU99 xenografts; endogenous in cells; host or cells: LU99 tumour xenografts in nude mice; settings: single-agent 30 mg/kg vs 100 mg/kg
[13] = BaF3, 72 h, 3 days, 4 independent experiments, read-out: GI50 ± St DV

C=CC(=O)N1CC2(CC(n3nc(-c4ccc5c(cnn5C)c4)c(-c4c(Cl)c(C)cc5[nH]ncc45)c3C)C2)C1 (single isomer, unassigned) [Compound A, 1-{6-[(4M)-4-(5-Chloro-6-methyl-1H-indazol-4-yl)-5-methyl-3-(1-methyl-1H-indazol-5-yl)-1H-pyrazol-1-yl]-2-azaspiro[3.3]heptan-2-yl}prop-2-en-1-one]
EC50 (KRASG12C [1]): 0.03 µM
EC50 (KRASG12C [2]): 0.02 µM
GI50 [3]: 4 µM
GI50 [4, 13]: 0.024 ± 0.006 µM
GI50 ([4]; BaF3, read-out: GI50): 0.024 ± 0.006 µM
GI50 [5, 13]: > 1 µM
GI50 ([5]; BaF3, read-out: GI50): > 1 µM
GI50 [6, 13]: > 1 µM
GI50 ([6]; BaF3, read-out: GI50): > 1 µM
GI50 [7, 13]: > 1 µM
GI50 ([7]; BaF3, read-out: GI50): > 1 µM
anti-tumor activity ([8]; 10 mg/kg daily oral): weak tumor-growth inhibition
anti-tumor activity ([8]; 30 mg/kg daily oral): moderate tumor-growth inhibition; also recorded: slightly less than tumor stasis
anti-tumor activity ([8]; 50 mg/kg twice daily oral): approximate tumor stasis
anti-tumor activity ([8]; 100 mg/kg daily oral): approximate tumor stasis
anti-tumor activity ([8]; 100 mg/kg daily oral, listed as JDQ443): stasis
pattern of maximal response ([8]; 10, 30 and 100 mg/kg oral daily): stasis-like
pattern of maximal response ([9]; LU99, 10, 30 and 100 mg/kg oral daily): regression
anti-tumor response (Example 7) ([9]; Lu99, oral, Compound A 100 mg/kg once daily, TNO155 10 mg/kg twice daily continuous, alone or in combination): tumor regression for approximately two weeks
anti-tumor response (Example 6) ([9]; Lu99, oral, Compound A 100 mg/kg once daily, TNO155 10 mg/kg twice daily, alone or in combination, up to 28 days): tumor regression for three weeks
tumor response in CRC PDX models [10]: regression of one PDX model and to a slight to moderate tumor growth delay in some PDX models
tolerability in 4-week toxicity study (4-week toxicity study): well tolerated
inhibition at 100 mg/kg (KRASG12C [11]): ~80%
reduction of free KRAS^G12C in tumors (KRASG12C [12]): less reduction of free KRAS^G12C
